According to publication PMC7466295, “An Absorption and Plasma Kinetics Study of Monoterpenes Present in Mastiha Oil in Humans” (Foods, 2020):

Experiments:
[1] = design: method as in PMID 29197300; settings: rats, oral administration; cited from earlier work
[2] = Postprandial plasma kinetics of monoterpenes after a single dose of Mastiha Oil (GC-MS-MS); format: in vivo, human; settings: for Time of first detection in plasma: human plasma after 1 mL MO; for Area Under Curve: 1 mL MO oral single dose, linear trapezoidal method; for concentration at 4 h: 4 h after 1 mL MO; for concentration at 24 h: 24 h after 1 mL MO; for Cmax / Tmax: healthy males, 1 mL MO oral single dose after overnight fasting
Source text: An open label intervention trial was designed to assess the postprandial plasma levels of the main monoterpenes present in MO and their effect in antioxidant capacity. A kinetic approach was applied. Fifty apparently healthy male adults were screened. Ten volunteers were found eligible to the study according to specific criteria (Table 1). Eligible subjects were informed about the aims, methodology, expected effect and any risk from the Information Leaflet of the study, before signing an Informed Consent. The investigator explained that participation was voluntary and participants received a copy of the signed Informed Consent.
A Thermo Ultra GC-Thermo XLS Quantum GC-MS-MS Triple Quad with a DB-5 ms 30 × 0.25 × 0.25 capillary column (Merck KGaA, Darmstadt, Germany) was used. The sample was injected using a Programmed Temperature Vaporizing (PTV) injector that allows concentration of samples, using an automated sampler. Injection volume was 1 µL.
To be able to determine low ppb levels, a GC-MS-MS technique was performed. Signal to noise improves radically compared to traditional GC-MS methods. Full scan MS-MS was first employed in analytical standards which run individually to determine the parent and daughter ions and retention times were validated with the use of analytical standards which run individually.
Initial temperature was held at 50 °C for 2 min. Then temperature was ramped to 60 °C with a rate of 5 °C/min. The temperature reached 270 °C at a rate of 7 °C/min. Injector temperature was set at 250 °C. The splitless injected volume was 1 µL. At 1.2 min the splitless valve switched.
The MS-MS conditions were as follows: Parent Ion was m/z 93 and daughter ions were 91 and 77 for all compounds. Collision energy was set at 8 V and collision gas pressure was 1.5 mTorr. MS-MS scan time was set at 0.15 s. The peak width was maintained at 0.7 amu.
For sample preparation, a 1:1 mixture of ethyl-acetate:hexane was used and equal volumes of blood plasma and extractant were put in centrifuge tubes and vortexed for 20 min. The samples were then centrifuged and filtrated before injection.
To be able to determine low ppb levels, a GC-MS-MS technique was performed, which, compared to traditional GC-MS methods, improves signal to noise values and thus sensitivity in the identification of compounds. Full scan MS-MS was first employed in analytical standards which run individually to determine the parent and daughter ions of the three terpenes and their retention times. Identification of chromatographic peaks was accomplished by using the parent ion and most abundant daughter ion of each compound and comparing the retention times with those of reference standards. For quantification, blank plasma samples (collected prior to MO administration) were spiked with standard monoterpene solutions ([…]), and were treated identically to the samples, since the standard addition method used eliminates the matrix effect. The standard monoterpene solutions were prepared in ethyl acetate in the range 2–2000 μg/L by diluting stock solutions (1 mg/mL). In all preliminary tests the average recovery for the monoterpenes studied was >80% and the detection limit was 0.02 µg/L.
The maximum concentrations of monoterpenes (Cmax) and the time intervals (Tmax) were obtained from each participant’s plasma concentration–time curve. The area under the plasma concentration–time curve (AUC) was analysed using the Linear Trapezoidal method.

[3] = male, oral, human plasma, mean ± SEM

Row | SMILES | Time at which bioavailable in plasma [1] | Time of peak concentration in plasma [1] | Time of first detection in plasma [2] | Area Under Curve ([2]; human plasma, mean ± SEM) | concentration at 4 h [2, 3] | concentration at 24 h [2, 3] | Cmax ([2]; male, human plasma, mean ± SEM) | Tmax ([2]; male, human plasma, mean ± SEM) | concentration at 0.5 h ([2]; male, oral, human plasma, 0.5 h after 1 mL MO, mean ± SEM) | concentration at 2 h ([2]; male, oral, human plasma, 2 h after 1 mL MO, mean ± SEM)
1 | CC1=CCC2CC1C2(C)C (stereo not drawn) [α-Pinene, α-pinene] | 0.17 h | 2.5 h | 0.5 h | 7865.2 ± 5547.3 ng·h/mL | 839 ± 189 ng/mL | 80.6 ± 7.3 ng/mL | 915 ± 551 ng/mL | 3.8 ± 1.2 h | – | –
2 | C=C1CCC2CC1C2(C)C (stereo not drawn) [β-Pinene, β-pinene] | – | – | 0.5 h | 164.0 ± 110.8 ng·h/mL | 16.7 ± 3.5 ng/mL | 2.1 ± 0.3 ng/mL | 18 ± 10.7 ng/mL | 3.6 ± 0.9 h | – | –
3 | C=CC(=C)CCC=C(C)C [Myrcene, myrcene] | – | – | 0.5 h | 15318.0 ± 7313.3 ng·h/mL | – | 648 ± 60.3 ng/mL | 967 ± 89.7 ng/mL | 2.2 ± 1.7 h | 775 ± 64 ng/mL | 906 ± 44.6 ng/mL
